Consider 28 compounds from PubChem BioAssay (NCI).

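Five concentrations, 48 hours, 96-well plates. The concentration for 50% growth inhibition is given as GI50. TGI: concentration producing complete growth inhibition.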

Experiment in all cases: NCI anticancer screen, dose series, 48 h
Assay [1] concerns K-562 leukemia.
Assay [2] concerns M14 melanoma.
For assay [3], the system named is NCI-H226 lung.
Assay [4] has as its system OVCAR-8 ovarian.
Assay [5] deals with SK-MEL-2 melanoma.
The test system of assay [6] is SK-MEL-5 melanoma.
Assay [7] deals with SNB-19 CNS.
In assay [8] the test system is SNB-75 CNS.
Assay [9] has as its system UO-31 renal.

Consider `Fc1ccc(C2SCc3nc4ccccc4n32)c(F)c1` (stereo not given), for which the TGI in assay [1] was greater than 100 µM; in assay [2], greater than 100 µM; in assay [3] it was greater than 100 µM; in assay [4], greater than 100 µM; in assay [5], greater than 100 µM; in assay [6] it was 79.6 µM. Besides, the TGI in assay [7], in assay [8] and in assay [9] was greater than 100 µM throughout.

Take `Clc1ccc(Nc2nc3ccccc3nc2-c2cccs2)cc1Cl`: the TGI was greater than 100 µM in assay [3]; 68.6 µM in [4]; greater than 100 µM in assay [5]; greater than 100 µM in [7]; greater than 100 µM in assay [8]; greater than 100 µM in [9].

`COc1ccc(-c2cc(Cc3cccs3)c(=O)[nH]n2)cc1`: the TGI is greater than 100 µM in assay [3]; greater than 100 µM in [4]; greater than 100 µM in [5]; 49.5 µM in assay [6]; greater than 100 µM in assay [7]; greater than 100 µM in assay [8]. The TGI in assay [9] is greater than 100 µM.

With `COc1cc2c3c(n(C)c(=O)c2cc1OC)-c1cc2c(cc1/C3=C\CCCCN1C(=O)c3ccccc3C1=O)OCO2`, the GI50 was 23.4 µM in assay [1]; 38.4 µM in assay [2]; 12.8 µM in assay [3]; 17.1 µM in [4]; 13 µM in assay [6]; 36.6 µM in assay [7]. Further, the GI50 in assay [8] was 28.5 µM. The TGI in assay [1] was greater than 100 µM; in assay [2] it was greater than 100 µM; in [3] it was 31.4 µM; in assay [4], greater than 100 µM; in assay [6], 39.4 µM; in [7], greater than 100 µM. For the same compound, the TGI in assay [8] is greater than 100 µM.

As to `C#C[C@]1(O)CCCC2=CC(=O)CC[C@@]21C`, the TGI in assay [1], in [2], in assay [3], in [4], in [5] and in assay [6] was greater than 100 µM in each case. Further, the TGI in [7] and in assay [9] was greater than 100 µM in each case.

On to `Cc1ccc(-c2nnc(-c3nn(-c4ccccc4)c4nc5ccccc5nc34)o2)cc1`, for which the TGI is 61.9 µM in [1]; greater than 100 µM in assay [2]; 30 µM in assay [3]; 25.7 µM in assay [4]; 39 µM in assay [5]; 25.8 µM in assay [6]. Also, the TGI in [7] amounted to 76 µM; in assay [8] it was 8.3 µM; in [9] it was 39 µM.

For the compound `O=C1CC(c2c[nH]c3ccccc23)C(=O)N1` (stereo not given), the TGI in assay [1], in [2], in [3], in [4], in assay [5] and in assay [6] was greater than 100 µM in each case. The TGI in assay [8] and in assay [9] was greater than 100 µM throughout.

As to `O=C1C(=C([O-])c2ccccc2)C(=O)c2ccccc21.O=C1C(=C([O-])c2ccccc2)C(=O)c2ccccc21.[Fe+2]`, the GI50 in assay [1] is 84.9 µM; in assay [2], greater than 100 µM; in assay [3] it was greater than 100 µM; in [4], 72.4 µM; in [6] it was greater than 100 µM; in assay [7], greater than 100 µM. The GI50 in assay [8] is 61.5 µM; in assay [9], 44.8 µM. The TGI in assay [1], in [2], in [3], in [4], in assay [6] and in [7] was greater than 100 µM throughout. Besides, the TGI in assay [8] and in assay [9] was greater than 100 µM throughout.

For `COc1cc(N2C(=O)[C@H](O)C2c2ccc(SC)cc2)cc(OC)c1OC` (stereo not given in full), the GI50 in [1], in assay [2], in [3], in [4], in assay [5] and in [6] was less than 0.01 µM throughout. Further, the GI50 in [7] and in assay [8] was less than 0.01 µM each time. Also, the TGI in assay [1] was greater than 100 µM; in assay [2] it was 0.0198 µM; in [3], greater than 100 µM; in [4], 22.4 µM; in assay [5], greater than 100 µM; in assay [6] it was 0.0304 µM. Also, the TGI in assay [7] and in [8] was greater than 100 µM throughout.

For the compound `CC/C=C\C/C=C\C/C=C\CCCCCCCC(=O)OCC(O)CO` (stereo not given), the TGI is 49 µM in assay [1]; greater than 81.9 µM in assay [2]; greater than 100 µM in [3]; greater than 100 µM in assay [4]; greater than 100 µM in [5]; greater than 100 µM in [6]. Besides, the TGI in assay [7] is greater than 100 µM; in assay [8], greater than 100 µM; in [9], 24.6 µM.

Take `Cc1ccc2c(C3Cc4ccccc4N3C(=O)/C=C\C(=O)O)c(C)[nH]c2c1` (stereo not given): the TGI was 73 µM in assay [1]; greater than 100 µM in [2]; greater than 100 µM in assay [3]; greater than 100 µM in assay [4]; 36 µM in [5]; greater than 100 µM in assay [6]. Besides, the TGI in [7], in [8] and in assay [9] was greater than 100 µM throughout.

Turning to `COc1cc(C(=O)C/C(CCC(=O)Nc2ccccc2[N+](=O)[O-])=N\NC(N)=O)ccc1O`, the TGI in assay [1], in assay [2], in [3], in assay [4], in assay [5] and in [6] was greater than 100 µM in each case. The TGI in assay [7], in [8] and in [9] was greater than 100 µM each time.

With `N#CC(=C1C=CC(=NO)C=C1)c1ccc(Cl)cc1`, the TGI in assay [2] was 41.5 µM; in assay [4], 60.3 µM; in assay [5], 20.2 µM; in assay [6], 21.3 µM; in assay [7] it was greater than 100 µM; in assay [8], greater than 100 µM. In addition, in [9], the TGI amounted to 31.7 µM.

For `CCOC(=O)C1C(=S)NC(=O)C1C#N` (stereo not given), the TGI in assay [1], in [2], in assay [4], in assay [5], in assay [6] and in assay [7] was greater than 100 µM each time. Also, the TGI in assay [8] and in [9] was greater than 100 µM throughout.

In the case of `Cc1c(/C=N/N=C/c2[nH]c(C(=O)OC(C)(C)C)c(C)c2C)[nH]c(C(=O)OC(C)(C)C)c1C`, the TGI in assay [1], in assay [2], in assay [3], in assay [4], in [5] and in assay [6] was greater than 100 µM in each case. Also, the TGI was greater than 100 µM in assay [7], 88.1 µM in [8] and greater than 100 µM in assay [9].

Take `O=C1OC(Cc2ccccc2)(N2CCCC2=O)C1c1ccccc1` (stereo not given): the TGI in assay [1], in assay [2], in assay [3], in assay [4], in assay [5] and in assay [6] was greater than 100 µM in each case. Besides, the TGI in assay [7], in assay [8] and in assay [9] was greater than 100 µM in each case.

For `COC(=O)C1(C)CCc2c(OC)ccc(OC)c2C1=O` (stereo not given), the TGI in [1], in [2], in [3], in [4], in [5] and in assay [6] was greater than 100 µM throughout. Moreover, the TGI in assay [7], in [8] and in assay [9] was greater than 100 µM throughout.

As for `C1CCC([PH+](C2CCCCC2)C2CCCCC2[PH+](C2CCCCC2)C2CCCCC2)CC1.[Au].[CH-]1CCCCC1CC1CCCC[N-]1` (stereo not given), the GI50 in assay [1] was 0.246 µM; in [2], 0.297 µM; in assay [3], 0.561 µM; in assay [4], 0.264 µM; in [5] it was 0.398 µM; in assay [6], 0.288 µM. Also, the figures for the GI50 in assay [7], in assay [8] and in [9] were 0.327 µM, 0.23 µM and 1.3 µM, respectively. For the same compound, the TGI is greater than 100 µM in assay [1]; 1.27 µM in assay [2]; 2.7 µM in assay [3]; greater than 100 µM in assay [4]; 1.38 µM in assay [5]; 0.813 µM in [6]. Also, the TGI in assay [7] is 1.46 µM; in [8] it was 0.971 µM; in assay [9] it was 2.61 µM.

In the case of `C/C(=C\c1ccc2ccccc2c1)[N+](=O)[O-]`, the GI50 was 2.23 µM in assay [1]; 2.2 µM in [2]; 2.41 µM in assay [3]; 1.73 µM in assay [4]; 1.85 µM in assay [5]; 1.79 µM in assay [6]. For the same compound, the values for the GI50 in assay [7], in assay [8] and in [9] were 6.15 µM, 1.84 µM and 1.39 µM, respectively. In addition, the TGI in assay [1] was 7.99 µM; in assay [2] it was 4.94 µM; in assay [3], 6.97 µM; in [4], 3.17 µM; in [5], 3.35 µM; in assay [6], 3.87 µM. Moreover, the TGI in [7] is 19.7 µM; in [8], 4.21 µM; in [9] it was 2.9 µM.

Take `Cc1cccc(C)c1NC(=O)/C(=N/NC(N)=S)C(C)C(=O)c1ccc(Cl)cc1` (stereo not given): the TGI in assay [1], in assay [2], in assay [3], in assay [4], in [5] and in assay [6] was greater than 100 µM throughout. The TGI in assay [7], in [8] and in assay [9] was greater than 100 µM in each case.

As to `CC(=O)Nc1ccc(SC#N)c2c(NC(C)=O)cccc12`, the TGI in assay [1], in [2], in [3], in [4], in assay [5] and in assay [6] was greater than 100 µM in each case. In addition, the TGI in assay [7], in assay [8] and in [9] was greater than 100 µM throughout.

Regarding `COC(=O)C1CC2CC(=NNC(N)=O)CC2C1` (stereo not given), the TGI in assay [1], in [2], in assay [4], in assay [5], in assay [6] and in [7] was greater than 100 µM in each case. Also, the TGI in assay [8] and in [9] was greater than 100 µM each time.

Regarding `O=C(NC1CCCCC1)NS(=O)(=O)c1ccc2c(c1)CCC2`, the TGI in assay [1], in assay [2], in assay [3], in assay [4], in assay [5] and in assay [7] was greater than 100 µM each time. Also, the TGI in assay [8] and in assay [9] was greater than 100 µM each time.

Take `CCN(CC)CC1c2ccccc2C(CNc2ccccc2)N1C` (stereo not given): the TGI in assay [1], in assay [2], in assay [4], in assay [5], in assay [6] and in assay [7] was greater than 100 µM throughout. The TGI in [8] and in assay [9] was greater than 100 µM throughout.

As for `O=C1NC(=O)C2C(=O)NC(=O)C1C2c1c(Cl)cccc1Cl` (stereo not given), the TGI is greater than 71.7 µM in assay [1]; greater than 100 µM in assay [2]; greater than 100 µM in assay [3]; greater than 100 µM in assay [4]; greater than 100 µM in assay [5]; greater than 100 µM in assay [6]. The TGI in assay [7], in [8] and in assay [9] was greater than 100 µM in each case.

As for `COc1ccc(C=O)c([N+](=O)[O-])c1`, the TGI in assay [1] was 36 µM; in [2], greater than 100 µM; in assay [3], greater than 100 µM; in assay [4], greater than 100 µM; in assay [5], greater than 100 µM; in assay [6] it was greater than 100 µM. The TGI in assay [7], in assay [8] and in [9] was greater than 100 µM in each case.

For `CCC(=O)C12OC3OC(C)(C)OC3C1OC(C)(C)O2` (stereo not given), the TGI in assay [1], in [2], in assay [3], in assay [4], in [5] and in [7] was greater than 100 µM in each case. Moreover, the TGI in assay [8] and in [9] was greater than 100 µM throughout.

Take `CC#CCC1CCC(OCC)=CC1=O` (stereo not given): the TGI in assay [1], in assay [2], in assay [3], in assay [4], in assay [5] and in [6] was greater than 100 µM throughout. Further, the TGI in [7], in [8] and in assay [9] was greater than 100 µM in each case.
